Assay results reported in patent EP4813991A1 (iLeadBMS Co., Ltd., priority 2023, dated 2025).
Where two headings read alike, the source gives them in different places.

Legend:
CDK12 [1] = target: T1, CDK12 (Homo sapiens, UniProt Q9NYV4); experiment: CDK12 kinase inhibitory activity assay (33P-ATP filter binding); type: biochemical; settings: kinase reaction 120 minutes, 33P-gamma-ATP; read-out: CDK12 IC50
How it was run: (§1)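 Radiometric filter-binding read-out: after 20 min compound–enzyme/substrate pre-incubation across 9 concentrations, reaction started with ^33P-γ-ATP and run 120 min at room temperature. Filter-bound ^33P-substrate measured after 0.75 % phosphoric acid washes; remaining activity versus DMSO gives IC50.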

CDK1 = CDK1 (Homo sapiens, UniProt P06493); experiment: CDK1 kinase inhibitory activity assay and selectivity over CDK12; type: biochemical; settings: for IC50: kinase reaction 120 minutes, 33P-gamma-ATP; for CDK1/CDK12: ratio of CDK1 IC50 to CDK12 IC50
Sequence of CDK1 (P06493 whole entry, species assumed): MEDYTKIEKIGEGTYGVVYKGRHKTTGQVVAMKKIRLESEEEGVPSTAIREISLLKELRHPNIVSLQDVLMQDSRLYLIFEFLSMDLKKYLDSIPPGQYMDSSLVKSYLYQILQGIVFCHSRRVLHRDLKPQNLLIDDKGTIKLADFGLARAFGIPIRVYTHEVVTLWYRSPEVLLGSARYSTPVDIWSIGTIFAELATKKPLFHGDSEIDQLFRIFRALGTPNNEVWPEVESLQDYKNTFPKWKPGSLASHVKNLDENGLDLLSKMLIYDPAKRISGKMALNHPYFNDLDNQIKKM
Sequence of CDK1 (P14635 whole entry partner, species assumed): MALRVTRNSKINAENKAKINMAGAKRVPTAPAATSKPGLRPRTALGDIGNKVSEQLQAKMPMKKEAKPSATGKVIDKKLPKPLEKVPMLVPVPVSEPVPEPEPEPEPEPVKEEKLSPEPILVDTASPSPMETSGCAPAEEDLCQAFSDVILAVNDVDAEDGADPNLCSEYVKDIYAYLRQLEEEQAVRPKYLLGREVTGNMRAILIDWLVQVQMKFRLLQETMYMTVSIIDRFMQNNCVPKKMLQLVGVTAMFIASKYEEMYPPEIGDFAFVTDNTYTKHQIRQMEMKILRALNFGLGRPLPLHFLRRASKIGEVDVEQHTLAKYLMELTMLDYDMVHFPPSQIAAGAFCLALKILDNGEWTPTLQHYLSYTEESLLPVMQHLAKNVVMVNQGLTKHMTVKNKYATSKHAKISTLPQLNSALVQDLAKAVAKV
Description: (§2) Before initiating the CDK1 and CDK2 kinase reactions, each Example compound was dissolved and diluted in DMSO as a solvent across 9 concentration ranges at room temperature. The diluted solutions were then incubated with a mixture of kinase and substrate (and cofactors, if required) for 20 minutes. Next, radioisotope-labeled ATP (^33P-gamma-ATP) was added to proceed with the kinase reaction at room temperature for 120 minutes. After the reaction was completed, the reaction mixture was transferred to a filter paper that binds the radioisotope-labeled catalytic product (^33P-substrate). Unreacted ^33P-ATP was removed by washing with 0.75 % phosphoric acid, and then the radioactive phosphorylated substrate remaining on the filter paper was measured. Kinase activity data were expressed as a percentage of the kinase activity remaining in the test sample compared to a DMSO control group. The half-maximal inhibitory concentration (IC50) for each kinase was calculated using Prism software.
(§3) The CDK1 and CDK2 kinase inhibitory activities of the Example compounds measured by the above method were evaluated according to the following criteria, and the results are presented in Table 14.

CDK12 [2] = target: T1, CDK12; experiment: Cellular CDK12 inhibitory activity assay (Ser2 phosphorylation of RNA polymerase II subunit B1 CTD in MDA-MB-231 cells); type: cell-based; set-up: using MDA-MB-231 breast cancer cells; endogenous in cells; host or cells: MDA-MB-231; settings: MDA-MB-231 cells, 6 hours treatment; read-out: pRpbl CTD S2 IC50
How it was run: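 MDA-MB-231 cells in L-15 with 10 % FBS were treated with compound at 9 concentrations for 6 h at 37 °C, 0 % CO2. In-Cell Western read phospho-Ser2 and total RNA polymerase II CTD on a Li-COR Odyssey; IC50 from 4-parameter dose-response fit.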

[3] = tested on: MDA-MB-231 breast cancer cells; experiment: Proliferation inhibitory activity assay against MDA-MB-231 breast cancer cells; type: cell-based; settings: Homo sapiens, 72 hours, CellTiter Glo, relative IC50
How it was run: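 Cells grown in L-15 with 10% FBS at 37 °C, 0% CO2, then exposed next day to compounds at 9 concentrations (DMSO vehicle) for 72 h. Viability read by CellTiter Glo luminescence; relative IC50 from dose-response curve fit.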

CDK2 = CDK2 (Homo sapiens, UniProt P24941); experiment: CDK2 kinase inhibitory activity assay and selectivity over CDK12; type: biochemical; settings: for IC50: kinase reaction 120 minutes, 33P-gamma-ATP; for CDK2/CDK12: ratio of CDK2 IC50 to CDK12 IC50
Description: as §2, §3

CDK13 = CDK13 (Homo sapiens, UniProt Q14004); experiment: CDK13 kinase inhibitory activity assay (33P-ATP filter binding); type: biochemical
Sequence of CDK13 (Q14004 whole entry, species assumed): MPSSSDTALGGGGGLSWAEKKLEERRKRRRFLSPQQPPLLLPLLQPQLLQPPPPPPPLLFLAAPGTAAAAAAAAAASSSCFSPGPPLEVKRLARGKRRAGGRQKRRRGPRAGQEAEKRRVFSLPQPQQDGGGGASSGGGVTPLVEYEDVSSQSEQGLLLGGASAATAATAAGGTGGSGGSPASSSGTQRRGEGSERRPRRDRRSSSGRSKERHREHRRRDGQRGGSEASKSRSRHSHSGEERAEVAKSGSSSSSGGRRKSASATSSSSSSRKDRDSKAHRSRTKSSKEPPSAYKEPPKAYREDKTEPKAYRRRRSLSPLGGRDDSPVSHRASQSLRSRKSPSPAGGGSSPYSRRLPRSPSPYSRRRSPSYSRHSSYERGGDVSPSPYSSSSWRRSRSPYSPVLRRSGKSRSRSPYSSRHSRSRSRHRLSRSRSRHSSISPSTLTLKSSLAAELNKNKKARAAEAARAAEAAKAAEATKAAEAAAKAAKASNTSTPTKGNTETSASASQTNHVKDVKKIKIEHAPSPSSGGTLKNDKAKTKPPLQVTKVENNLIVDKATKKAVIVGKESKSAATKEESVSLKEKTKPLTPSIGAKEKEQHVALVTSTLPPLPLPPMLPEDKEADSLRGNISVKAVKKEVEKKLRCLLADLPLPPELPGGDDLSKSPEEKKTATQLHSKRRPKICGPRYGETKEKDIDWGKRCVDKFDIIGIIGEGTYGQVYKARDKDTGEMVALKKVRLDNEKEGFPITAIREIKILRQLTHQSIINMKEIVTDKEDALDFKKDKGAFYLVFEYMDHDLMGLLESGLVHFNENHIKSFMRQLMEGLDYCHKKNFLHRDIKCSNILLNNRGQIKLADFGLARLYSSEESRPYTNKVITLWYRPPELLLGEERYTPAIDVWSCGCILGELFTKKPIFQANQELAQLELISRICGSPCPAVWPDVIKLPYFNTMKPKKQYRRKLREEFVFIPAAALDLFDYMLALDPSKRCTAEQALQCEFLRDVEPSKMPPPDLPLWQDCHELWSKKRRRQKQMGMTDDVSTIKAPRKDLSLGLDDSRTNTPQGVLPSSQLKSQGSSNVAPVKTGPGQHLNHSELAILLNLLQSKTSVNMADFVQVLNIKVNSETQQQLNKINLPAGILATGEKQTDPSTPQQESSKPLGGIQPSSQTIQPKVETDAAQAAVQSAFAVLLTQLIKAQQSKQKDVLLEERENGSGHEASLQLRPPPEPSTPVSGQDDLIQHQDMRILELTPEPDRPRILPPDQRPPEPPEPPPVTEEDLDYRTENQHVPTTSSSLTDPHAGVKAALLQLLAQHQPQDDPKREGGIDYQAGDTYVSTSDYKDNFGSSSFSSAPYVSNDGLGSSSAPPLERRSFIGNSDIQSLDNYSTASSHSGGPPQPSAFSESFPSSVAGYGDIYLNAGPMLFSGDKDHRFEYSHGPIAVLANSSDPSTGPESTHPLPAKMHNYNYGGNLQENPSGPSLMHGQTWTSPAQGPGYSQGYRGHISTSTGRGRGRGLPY
Sequence of CDK13 (O75909 whole entry partner, species assumed): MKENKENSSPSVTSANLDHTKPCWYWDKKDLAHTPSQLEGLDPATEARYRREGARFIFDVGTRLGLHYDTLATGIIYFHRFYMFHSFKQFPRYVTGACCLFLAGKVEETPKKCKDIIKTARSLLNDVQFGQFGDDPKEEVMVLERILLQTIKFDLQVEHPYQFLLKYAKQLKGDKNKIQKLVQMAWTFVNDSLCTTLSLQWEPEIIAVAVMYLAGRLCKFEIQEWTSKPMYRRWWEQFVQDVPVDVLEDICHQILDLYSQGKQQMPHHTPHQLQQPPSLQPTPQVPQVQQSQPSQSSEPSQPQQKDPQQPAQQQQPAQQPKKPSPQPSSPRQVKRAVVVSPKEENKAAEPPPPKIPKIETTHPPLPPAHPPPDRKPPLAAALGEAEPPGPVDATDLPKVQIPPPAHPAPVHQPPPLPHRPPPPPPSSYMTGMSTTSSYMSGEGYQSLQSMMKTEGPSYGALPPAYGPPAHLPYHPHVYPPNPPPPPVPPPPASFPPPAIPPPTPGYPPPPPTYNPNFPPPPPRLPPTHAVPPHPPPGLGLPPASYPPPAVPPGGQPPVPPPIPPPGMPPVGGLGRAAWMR
How it was run: as §1

MDA-MB-436 cells = experiment: Breast cancer cell proliferation inhibitory activity, MDA-MB-436; type: cell-based; settings: Homo sapiens, 72 hours, CellTiter Glo, relative IC50
Description: (§4) Experiments were conducted using three types of breast cancer cell lines to measure the cell proliferation inhibitory ability of each Example compound. For HCC70 cells, 100 µL of cell suspension was dispensed into a 96-well plate using RPMI1640 (Invitrogen) medium containing 10 % FBS, followed by incubation in a cell incubator at 37 °C and 5 % CO2. For BT-20 cells, 100 µL of cell suspension was dispensed into a 96-well plate using EMEM (Invitrogen) medium containing 10 % FBS, followed by incubation in a cell incubator at 37 °C and 5 % CO2. For MDA-MB-436 cells, 100 µL of cell suspension was dispensed into a 96-well plate using L-15 (Invitrogen) medium containing 10 % FBS, followed by incubation in a cell incubator at 37 °C and 0 % CO2. The next day, each Example compound dissolved and diluted in DMSO across 9 concentration ranges and a DMSO control group were treated on the cells for 72 hours. After completion of the compound treatment, 100 µL of CellTiter Glo (Promega) reagent was added to each well of the 96-wellplate, followed by shaking for 10 minutes and standing at room temperature for 10 minutes. After inserting the 96-well plate into an Envision plate reader (PerkinElmer), luminescence signals were measured. Relative IC50 values were calculated by fitting a dose-response curve using XL fit (IDBS Ltd) software.
(§5) The breast cancer cell proliferation inhibitory activities of the Example compounds measured by the method described above were evaluated according to the following criteria, and the results are presented in Table 15.

HCC70 cells = experiment: Breast cancer cell proliferation inhibitory activity, HCC70; type: cell-based; settings: Homo sapiens, 72 hours, CellTiter Glo, relative IC50
Description: as §4, §5

BT-20 cells = experiment: Breast cancer cell proliferation inhibitory activity, BT-20; type: cell-based; settings: Homo sapiens, 72 hours, CellTiter Glo, relative IC50
Description: as §4, §5

[4] = kinase reaction 120 minutes, 33P-gamma-ATP, read-out: CDK13 IC50

T1 sequence (Q9NYV4 whole entry, species assumed): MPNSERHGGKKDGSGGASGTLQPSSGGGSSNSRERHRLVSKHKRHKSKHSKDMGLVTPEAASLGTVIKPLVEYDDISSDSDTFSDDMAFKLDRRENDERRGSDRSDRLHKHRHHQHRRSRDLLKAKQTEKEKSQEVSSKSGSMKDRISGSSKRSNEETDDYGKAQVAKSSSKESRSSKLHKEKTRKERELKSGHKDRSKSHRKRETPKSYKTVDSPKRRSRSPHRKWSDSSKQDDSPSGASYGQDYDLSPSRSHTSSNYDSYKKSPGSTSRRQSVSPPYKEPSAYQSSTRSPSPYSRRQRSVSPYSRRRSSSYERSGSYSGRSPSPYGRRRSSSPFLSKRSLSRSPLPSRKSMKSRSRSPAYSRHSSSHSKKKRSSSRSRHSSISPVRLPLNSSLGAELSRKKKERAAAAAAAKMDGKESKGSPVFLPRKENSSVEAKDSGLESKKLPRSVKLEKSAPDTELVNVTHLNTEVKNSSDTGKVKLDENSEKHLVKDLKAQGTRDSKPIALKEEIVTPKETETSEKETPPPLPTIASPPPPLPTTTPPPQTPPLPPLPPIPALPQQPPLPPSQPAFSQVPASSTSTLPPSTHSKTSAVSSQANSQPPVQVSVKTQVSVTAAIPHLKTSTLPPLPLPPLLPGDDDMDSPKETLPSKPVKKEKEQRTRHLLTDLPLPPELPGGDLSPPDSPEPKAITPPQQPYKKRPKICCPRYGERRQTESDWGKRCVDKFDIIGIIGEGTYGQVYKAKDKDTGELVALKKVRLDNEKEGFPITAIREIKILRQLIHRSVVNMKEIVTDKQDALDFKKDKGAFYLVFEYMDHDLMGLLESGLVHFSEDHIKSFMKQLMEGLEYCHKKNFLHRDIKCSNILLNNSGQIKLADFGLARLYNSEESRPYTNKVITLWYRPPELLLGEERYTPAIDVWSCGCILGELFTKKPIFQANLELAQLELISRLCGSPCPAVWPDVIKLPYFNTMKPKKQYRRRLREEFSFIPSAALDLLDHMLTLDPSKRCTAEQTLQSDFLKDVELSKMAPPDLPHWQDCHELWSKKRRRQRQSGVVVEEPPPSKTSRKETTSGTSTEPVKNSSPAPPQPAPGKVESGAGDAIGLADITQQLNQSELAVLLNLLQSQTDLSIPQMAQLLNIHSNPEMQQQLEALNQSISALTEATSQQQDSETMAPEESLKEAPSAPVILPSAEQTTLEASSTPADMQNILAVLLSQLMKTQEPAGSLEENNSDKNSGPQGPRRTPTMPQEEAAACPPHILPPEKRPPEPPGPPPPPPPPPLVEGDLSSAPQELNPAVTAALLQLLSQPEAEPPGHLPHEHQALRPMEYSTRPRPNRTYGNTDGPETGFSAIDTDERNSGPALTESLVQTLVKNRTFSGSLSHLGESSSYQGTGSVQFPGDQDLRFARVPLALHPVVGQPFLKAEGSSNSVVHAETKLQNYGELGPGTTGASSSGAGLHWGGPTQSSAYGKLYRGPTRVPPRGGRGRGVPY
T1 sequence (O75909 whole entry partner, species assumed): as the sequence (O75909 whole entry partner, species assumed) above

SMILES | IC50 (CDK12 [1]) [nM] | IC50 (CDK1) [nM] | CDK1/CDK12 (CDK1) | IC50 (CDK12 [2]) [nM] | IC50 [3] [nM] | IC50 (CDK2) [nM] | CDK2/CDK12 (CDK2) | IC50 (CDK13; [4]) [nM] | IC50 (MDA-MB-436 cells) [nM] | IC50 (BT-20 cells) [nM] | IC50 (CDK13) [nM] | IC50 (HCC70 cells) [nM]
FC(F)(F)c1cnc2c(NCc3nc4cc(Cl)c(Cl)cc4[nH]3)cc(N3CCOCC3)nn12 [Example 68, N-((5,6-dichloro-1H-benzo[d]imidazol-2-yl)methyl)-6-morpholino-3-(trifluoromethyl)imidazo[1,2-b]pyridazin-8-amine] | 100 to 500 | > 1000 | C (CDK1/CDK12 or CDK2/CDK12 ≤ 100-fold) | < 300 | ≤ 50 | > 1000 | C (CDK1/CDK12 or CDK2/CDK12 ≤ 100-fold) | < 100 | – | – | – | –
FC(F)(F)c1cnc2c(NCc3nc4ccccc4[nH]3)cc(N3CCOCC3)nn12 [Example 69, N-((1H-benzo[d]imidazol-2-yl)methyl)-6-morpholino-3-(trifluoromethyl)imidazo[1,2-b]pyridazin-8-amine] | < 100 | > 1000 | B (100-fold < CDK1/CDK12 or CDK2/CDK12 ≤ 500-fold) | 300 to 3000 | 50 to 500 | > 1000 | B (100-fold < CDK1/CDK12 or CDK2/CDK12 ≤ 500-fold) | < 100 | – | – | – | –
COc1cc2nc(CNc3cc(N4CCOCC4)nn4c(C(F)(F)F)cnc34)[nH]c2cc1Cl [Example 71, N-((6-chloro-5-methoxy-1H-benzo[d]imidazol-2-yl)methyl)-6-morpholino-3-(trifluoromethyl)imidazo[1,2-b]pyridazin-8-amine] | < 100 | > 1000 | B (100-fold < CDK1/CDK12 or CDK2/CDK12 ≤ 500-fold) | < 300 | ≤ 50 | > 1000 | B (100-fold < CDK1/CDK12 or CDK2/CDK12 ≤ 500-fold) | < 100 | – | – | – | –
Cc1cc2nc(CNc3cc(N4CCOCC4)nn4c(C(F)(F)F)cnc34)[nH]c2cc1C [Example 72, N-((5,6-dimethyl-1H-benzo[d]imidazol-2-yl)methyl)-6-morpholino-3-(trifluoromethyl)imidazo[1,2-b]pyridazin-8-amine] | < 100 | > 1000 | A (CDK1/CDK12 or CDK2/CDK12 > 500-fold) | < 300 | ≤ 50 | > 1000 | A (CDK1/CDK12 or CDK2/CDK12 > 500-fold) | < 100 | – | – | – | –
Fc1ccc2[nH]c(CNc3cc(N4CCOCC4)nn4c(C(F)(F)F)cnc34)nc2c1 [Example 77, N-((5-fluoro-1H-benzo[d]imidazol-2-yl)methyl)-6-morpholino-3-(trifluoromethyl)imidazo[1,2-b]pyridazin-8-amine] | < 100 | > 1000 | A (CDK1/CDK12 or CDK2/CDK12 > 500-fold) | < 300 | ≤ 50 | > 1000 | B (100-fold < CDK1/CDK12 or CDK2/CDK12 ≤ 500-fold) | < 100 | – | – | – | –
O=C(CO)NC1CCN(c2cc(NCc3nc4cc(Cl)c(Cl)cc4[nH]3)c3ncc(C(F)(F)F)n3n2)CC1 [Example 115, N-(1-(8-(((5,6-dichloro-1H-benzo[d]imidazol-2-yl)methyl)amino)-3-(trifluoromethyl)imidazo[1,2-b]pyridazin-6-yl)piperidin-4-yl)-2-hydroxyacetamide] | < 100 | > 1000 | B (100-fold < CDK1/CDK12 or CDK2/CDK12 ≤ 500-fold) | < 300 | ≤ 50 | > 1000 | B (100-fold < CDK1/CDK12 or CDK2/CDK12 ≤ 500-fold) | – | – | – | < 100 | –
O=C(c1cc(Cc2n[nH]c(=O)c3ccccc23)ccc1F)N1CCN(C(=O)C2CC2)CC1 [Olaparib, reference compound] | – | – | – | – | – | – | – | – | > 1000 | > 1000 | – | > 1000
CC(=O)c1c(C)c2cnc(Nc3ccc(N4CCNCC4)cn3)nc2n(C2CCCC2)c1=O [Palbociclib, reference compound] | – | – | – | – | – | – | – | – | – | > 1000 | – | > 1000
Cn1cc(-n2cnc3c(NCc4nc5cc(Cl)c(Cl)cc5[nH]4)nc(N4CCOCC4)nc32)cn1 [SR-4835, reference compound] | – | – | – | – | 50 to 500 | – | – | 100 to 500 | 50 to 1000 | 50 to 1000 | – | 50 to 1000

Now from value to compound, other results behind:

IC50 (CDK12 [1]) [nM] | IC50 (CDK1) [nM] | CDK1/CDK12 (CDK1) | IC50 (CDK12 [2]) [nM] | IC50 [3] [nM] | IC50 (CDK2) [nM] | CDK2/CDK12 (CDK2) | IC50 (CDK13; [4]) [nM] | IC50 (MDA-MB-436 cells) [nM] | IC50 (BT-20 cells) [nM] | SMILES | IC50 (CDK13) [nM] | IC50 (HCC70 cells) [nM]
< 100 | > 1000 | A (CDK1/CDK12 or CDK2/CDK12 > 500-fold) | 300 to 3000 | ≤ 50 | > 1000 | A (CDK1/CDK12 or CDK2/CDK12 > 500-fold) | < 100 | – | – | COc1cccc2[nH]c(CNc3cc(N4CCOCC4)nn4c(C(F)(F)F)cnc34)nc12 [Example 73, N-((4-methoxy-1H-benzo[d]imidazol-2-yl)methyl)-6-morpholino-3-(trifluoromethyl)imidazo[1,2-b]pyridazin-8-amine] | – | –
< 100 | > 1000 | A (CDK1/CDK12 or CDK2/CDK12 > 500-fold) | < 300 | 50 to 500 | > 1000 | A (CDK1/CDK12 or CDK2/CDK12 > 500-fold) | < 100 | – | – | Cc1ccnc2[nH]c(CNc3cc(N4CCOCC4)nn4c(C(F)(F)F)cnc34)nc12 [Example 75, N-((7-methyl-3H-imidazo[4,5-b]pyridin-2-yl)methyl)-6-morpholino-3-(trifluoromethyl)imidazo[1,2-b]pyridazin-8-amine] | – | –
< 100 | > 1000 | A (CDK1/CDK12 or CDK2/CDK12 > 500-fold) | < 300 | ≤ 50 | > 1000 | A (CDK1/CDK12 or CDK2/CDK12 > 500-fold) | < 100 | – | – | Fc1cccc2[nH]c(CNc3cc(N4CCOCC4)nn4c(C(F)(F)F)cnc34)nc12 [Example 76, N-((4-fluoro-1H-benzo[d]imidazol-2-yl)methyl)-6-morpholino-3-(trifluoromethyl)imidazo[1,2-b]pyridazin-8-amine] | – | –
